According to ChEMBL document CHEMBL1201862, “PubChem BioAssay data set” (2004):
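All cell lines were grown in 96-well plates and treated with compound for 48 hours. At the GI50, growth is halved.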 Activity calls are given as the source filed them. Rule as the data show it: active = GI50 up to about 1.1 µM and inactive = higher.

Legend:
Assay in all cases: DTP human tumour cell line panel, 48 h
[1] = tested on: RPMI-8226
[2] = tested on: UACC-62
[3] = tested on: UACC-257
[4] = tested on: XF498
[5] = tested on: SK-OV-3
[6] = tested on: CAKI-1
[7] = tested on: TK-10
[8] = tested on: HCT-15
[9] = tested on: OVCAR-3
[10] = tested on: 786-0
[11] = tested on: LOX IMVI
[12] = tested on: HOP-62
[13] = tested on: A498
[14] = tested on: NCI-H226
[15] = tested on: KM12
[16] = tested on: Malme-3M
[17] = tested on: PC-3
[18] = tested on: BT-549
[19] = tested on: MDA-MB-435
[20] = tested on: NCI/ADR-RES

SMILES | GI50 [1] | GI50 [2] | GI50 [3] | GI50 [4] | GI50 [5] | GI50 [6] | GI50 [7] | GI50 [8] | GI50 [9] | GI50 [10] | GI50 [11] | GI50 [12] | GI50 [13] | GI50 [14] | GI50 [15] | GI50 [16] | GI50 [17] | GI50 [18] | GI50 [19] | GI50 [20]
COc1ccc2occ(CCC(=O)O)c2c1 | > 100 µM (inactive) | > 100 µM (inactive) | > 100 µM (inactive) | > 100 µM (inactive) | > 100 µM (inactive) | > 100 µM (inactive) | > 100 µM (inactive) | > 100 µM | > 100 µM (inactive) | > 100 µM (inactive) | > 100 µM (inactive) | > 100 µM (inactive) | > 100 µM (inactive) | – | – | – | – | – | – | –
Cc1cccc(C)c1NC(=O)CCC/C(CC(=O)c1ccc(F)cc1)=N\NC(=O)C(=O)NN | > 100 µM (inactive) | > 100 µM (inactive) | > 100 µM (inactive) | > 100 µM (inactive) | > 100 µM (inactive) | > 100 µM (inactive) | > 100 µM (inactive) | > 100 µM | > 100 µM (inactive) | > 100 µM (inactive) | > 100 µM (inactive) | – | > 100 µM (inactive) | > 100 µM (inactive) | > 100 µM (inactive) | > 100 µM (inactive) | – | – | – | –
CN(C)CCS/C(=N\c1ccccc1)N1C=COC=C1 | 61.7 µM (inactive) | 16 µM (inactive) | 18.2 µM (inactive) | 31.2 µM (inactive) | > 100 µM (inactive) | > 33.3 µM (inactive) | 47.5 µM (inactive) | 20.5 µM | 46 µM (inactive) | 20.1 µM (inactive) | 16 µM (inactive) | > 100 µM (inactive) | > 100 µM (inactive) | > 46.2 µM (inactive) | 57.4 µM (inactive) | 33.7 µM (inactive) | 34.4 µM (inactive) | > 100 µM (inactive) | 18.9 µM (inactive) | –
O=C1CC[C@@H](S(=O)(=O)c2ccccc2)[C@H](/C=C/c2ccccc2)O1 | > 100 µM (inactive) | > 100 µM (inactive) | > 100 µM (inactive) | < 0.01 µM (active) | > 100 µM (inactive) | – | > 100 µM (inactive) | > 100 µM | > 100 µM (inactive) | > 100 µM (inactive) | > 100 µM (inactive) | > 100 µM (inactive) | > 100 µM (inactive) | > 100 µM (inactive) | > 100 µM (inactive) | > 100 µM (inactive) | – | – | – | –
COc1cc2c(c(OC)c1)C(=O)C(=O)C(CC1(C)OCCCO1)=C2 | 3.56 µM (inactive) | 7.91 µM (inactive) | 14.1 µM (inactive) | 12.8 µM (inactive) | 16.6 µM (inactive) | 5.43 µM (inactive) | 6.14 µM (inactive) | 6.25 µM | 3.8 µM (inactive) | 9.1 µM (inactive) | 5.01 µM (inactive) | 17.5 µM (inactive) | 17.2 µM (inactive) | 6.17 µM (inactive) | 16 µM (inactive) | 8.2 µM (inactive) | – | – | – | –
Nc1nc2c(c(=O)[nH]1)NC(CO)CN2 (centres undefined) | > 100 µM (inactive) | 84.7 µM (inactive) | 24.3 µM (inactive) | 84.9 µM (inactive) | > 100 µM (inactive) | – | > 100 µM (inactive) | > 100 µM | > 100 µM (inactive) | > 100 µM (inactive) | 19.2 µM (inactive) | > 100 µM (inactive) | – | > 100 µM (inactive) | > 100 µM (inactive) | > 100 µM (inactive) | – | – | – | –
O=C(/C=C/c1ccc([N+](=O)[O-])o1)N1CCN(Cc2ccccc2)CC1 | 10.5 µM (inactive) | 6.82 µM (inactive) | 7.89 µM (inactive) | 16.7 µM (inactive) | 43.5 µM (inactive) | 8.17 µM (inactive) | 23.2 µM (inactive) | 4.41 µM | 17.7 µM (inactive) | 12.7 µM (inactive) | 12.6 µM (inactive) | 20.2 µM (inactive) | 15.7 µM (inactive) | – | 12.1 µM (inactive) | – | – | – | – | –
CCC(=O)OC1CCn2c1nc1c2C(=O)C(C)=C(NC(C)=O)C1=N (centres undefined) | 2.06 µM (inactive) | 1.32 µM (inactive) | 1.24 µM (inactive) | 2.65 µM (inactive) | 2.6 µM (inactive) | 0.653 µM (active) | 3.72 µM (inactive) | 2.25 µM | 0.453 µM (active) | 2.43 µM (inactive) | 0.755 µM (active) | 1.83 µM (inactive) | 1.82 µM (inactive) | 1.93 µM (inactive) | 2.11 µM (inactive) | 1.43 µM (inactive) | – | – | – | –
CC1Cc2c(N)nc(NN)nc2NC1=O (centres undefined) | > 100 µM (inactive) | > 100 µM (inactive) | > 100 µM (inactive) | 3.94 µM (inactive) | > 100 µM (inactive) | – | > 100 µM (inactive) | > 100 µM | > 100 µM (inactive) | > 100 µM (inactive) | > 100 µM (inactive) | > 100 µM (inactive) | – | > 100 µM (inactive) | > 100 µM (inactive) | > 100 µM (inactive) | – | – | – | –
C=C(COC(C)=O)CC(/C=C(\C)CC/C=C(\C)CO)OC(C)=O (centres undefined) | > 10 µM (inactive) | > 100 µM (inactive) | – | > 100 µM (inactive) | > 100 µM (inactive) | – | > 100 µM (inactive) | > 100 µM | > 100 µM (inactive) | > 100 µM (inactive) | > 100 µM (inactive) | > 100 µM (inactive) | > 100 µM (inactive) | > 100 µM (inactive) | > 100 µM (inactive) | – | – | – | – | –
O=C(Cn1ccnc1[N+](=O)[O-])c1ccccc1 | > 100 µM (inactive) | > 100 µM (inactive) | > 100 µM (inactive) | > 100 µM (inactive) | > 100 µM (inactive) | > 100 µM (inactive) | > 100 µM (inactive) | > 100 µM | > 100 µM (inactive) | > 100 µM (inactive) | > 100 µM (inactive) | > 100 µM (inactive) | > 100 µM (inactive) | > 100 µM (inactive) | > 100 µM (inactive) | > 100 µM (inactive) | – | – | – | –
COC(=O)c1c2cccccc-2c(Cc2c3cccccc-3c(C(=O)OC)c2O)c1O | > 100 µM (inactive) | > 100 µM (inactive) | > 100 µM (inactive) | > 100 µM (inactive) | > 100 µM (inactive) | > 100 µM (inactive) | > 100 µM (inactive) | > 100 µM | > 100 µM (inactive) | > 100 µM (inactive) | > 100 µM (inactive) | > 100 µM (inactive) | > 100 µM (inactive) | > 100 µM (inactive) | > 100 µM (inactive) | > 100 µM (inactive) | – | – | – | –
CC(=O)N1CC(=O)NC1=S | > 100 µM (inactive) | > 100 µM (inactive) | > 100 µM (inactive) | > 100 µM (inactive) | > 100 µM (inactive) | > 100 µM (inactive) | > 100 µM (inactive) | > 100 µM | > 100 µM (inactive) | > 100 µM (inactive) | > 100 µM (inactive) | > 100 µM (inactive) | – | > 100 µM (inactive) | > 100 µM (inactive) | > 100 µM (inactive) | – | – | – | –
Cn1cnc([N+](=O)[O-])c1Sc1nccn1-c1cccc2ccccc12 | 15.8 µM (inactive) | 16.4 µM (inactive) | 27.3 µM (inactive) | 16.6 µM (inactive) | 31.8 µM (inactive) | 30.9 µM (inactive) | 22 µM (inactive) | – | 22.9 µM (inactive) | 48.1 µM (inactive) | 13.6 µM (inactive) | > 100 µM (inactive) | 32.7 µM (inactive) | 18.2 µM (inactive) | 35.7 µM (inactive) | 13.7 µM (inactive) | – | – | – | –
Cc1ccc(C)c(NC(=O)CCc2n[nH]c(=S)o2)c1 | – | > 100 µM (inactive) | > 100 µM (inactive) | > 100 µM (inactive) | – | > 100 µM (inactive) | > 100 µM (inactive) | > 100 µM | > 100 µM (inactive) | > 100 µM (inactive) | > 100 µM (inactive) | > 100 µM (inactive) | > 100 µM (inactive) | > 100 µM (inactive) | > 100 µM (inactive) | > 100 µM (inactive) | – | – | – | –
O=C1/C(=C(/Br)I)c2ccccc2-c2ccccc21 | 2.97 µM (inactive) | 7.19 µM (inactive) | 6.01 µM (inactive) | – | 15.7 µM (inactive) | 5.57 µM (inactive) | 8.97 µM (inactive) | 4.34 µM | 9.98 µM (inactive) | 3.34 µM (inactive) | 5.3 µM (inactive) | 17.1 µM (inactive) | 16.4 µM (inactive) | 18.8 µM (inactive) | 14.2 µM (inactive) | 3.56 µM (inactive) | 8.34 µM (inactive) | 7.03 µM (inactive) | 8.51 µM (inactive) | 9.02 µM (inactive)
